Measurements reported in ChEMBL document CHEMBL6177950, “Discovery of potent and selective CDK2 inhibitors with high safety and favorable bioavailability for the treatment of cancer” (Eur J Med Chem, 2025).
Active and inactive are the calls of the source. The calls are words filed in the database; no cut-off is given here.

Assays:
OVCAR-3 [1] = experiment: Antitumor activity against human OVCAR-3 cells xenografted in nude BALB/c mouse model assessed as tumor growth inhibition at 80 mg/kg, po administered once daily for 21 days; format: functional, organism-based; conditions: time 21.0 day
OVCAR-3 [2] = experiment: Induction of apoptosis in human OVCAR-3 cells assessed as late apoptotic cells at 1 uM incubated for 24 hrs by Annexin V-FITC/PI staining based flow cytometry analysis (reference value: 2.67%); format: functional
OVCAR-3 [3] = experiment: Induction of apoptosis in human OVCAR-3 cells assessed as reduction in Bcl2 expression incubated for 24 hrs by Western blot analysis; format: functional, cell-based
[4] = Half life in Sprague-Dawley rat at 2 mg/kg, iv by LC-MS/MS analysis; format: ADME, organism-based; conditions: in vivo
OVCAR-3 [5] = experiment: Induction of apoptosis in human OVCAR-3 cells assessed as upregulation of PARP cleavage incubated for 24 hrs by Western blot analysis; format: functional, cell-based
[6] = Acute toxicity in ICR mouse assessed as effect on heart weight at 1000 to 2500 mg/kg, po administered once for 14 days; format: organism-based; conditions: in vivo, 336 h, dose 1000-2500 mg/kg, time 14 day
[7] = MRT (0 to infinity) in Sprague-Dawley rat at 2 mg/kg, iv by LC-MS/MS analysis; format: ADME, organism-based; conditions: in vivo
OVCAR-3 [8] = experiment: Antitumor activity against human OVCAR-3 cells xenografted in nude BALB/c mouse assessed as suppression of tumor cell proliferation at 40 to 80 mg/kg, po administered once daily for 21 days by Ki67 staining based analysis; format: functional, organism-based; conditions: dose 40-80 mg/kg, time 21.0 day
[9] = C0 in Sprague-Dawley rat at 2 mg/kg, iv by LC-MS/MS analysis; format: ADME, organism-based; conditions: in vivo
OVCAR-3 [10] = experiment: Induction of apoptosis in human OVCAR-3 cells assessed as viable cells at 1 uM incubated for 24 hrs by Annexin V-FITC/PI staining based flow cytometry analysis (reference value: 95.2%); format: functional; conditions: read-out: Activity
[11] = Antiproliferative activity against CCNE1-amplified human OVCAR-3 cells assessed as cell growth inhibition incubated for 3 days by CCK8 assay; format: functional, cell-based; conditions: OVCAR-3, 72 h
OVCAR-3 [12] = experiment: Induction of cell senescence in human OVCAR-3 cells assessed as increase in beta galactosidase activity incubated for 24 hrs by staining based inverted microscopic analysis; format: functional; conditions: dose 1-2 µM
[13] = Acute toxicity in ICR mouse assessed as effect on spleen weight at 1000 to 2500 mg/kg, po administered once for 14 days; format: organism-based; conditions: in vivo, 336 h, dose 1000-2500 mg/kg, time 14 day
[14] = Acute toxicity in ICR mouse assessed as pathological changes in lung at 1000 to 2500 mg/kg, po administered once for 14 days by H and E staining analysis; format: organism-based; conditions: in vivo, 336 h, dose 1000-2500 mg/kg, time 14 day
OVCAR-3 [15] = experiment: Induction of cell cycle arrest in human OVCAR-3 cells assessed as accumulation of cells at G2 phase at 2 uM incubated for 24 hrs by flow cytometry analysis (reference value: 21.77%); format: functional
[16] = Acute toxicity in ICR mouse assessed as effect on kidney weight at 1000 to 2500 mg/kg, po administered once for 14 days; format: organism-based; conditions: in vivo, 336 h, dose 1000-2500 mg/kg, time 14 day
OVCAR-3 [17] = experiment: Upregulation of apoptosis-related signaling pathway gene expression in human OVCAR-3 cells by GSEA; format: functional, cell-based
OVCAR-3 [18] = experiment: Induction of cell cycle arrest in human OVCAR-3 cells assessed as accumulation of cells at G2 phase at 1 uM incubated for 24 hrs by flow cytometry analysis (reference value: 21.77%); format: functional
OVCAR-3 [19] = experiment: Upregulation of JUNB gene expression in human OVCAR-3 cells by GSEA; format: functional, cell-based
OVCAR-3 [20] = experiment: Upregulation of inflammation-related pathway gene expression in human OVCAR-3 cells by GSEA; format: functional, cell-based
OVCAR-3 [21] = experiment: Induction of apoptosis in human OVCAR-3 cells assessed as necrotic cells at 1 uM incubated for 24 hrs by Annexin V-FITC/PI staining based flow cytometry analysis (reference value: 0.87%); format: functional
[22] = Acute toxicity in ICR mouse assessed as effect on liver weight at 1000 to 2500 mg/kg, po administered once for 14 days; format: organism-based; conditions: in vivo, 336 h, dose 1000-2500 mg/kg, time 14 day
OVCAR-3 [23] = experiment: Upregulation of Bcl2l1gene expression in human OVCAR-3 cells by GSEA; format: functional, cell-based

CCC(C)n1cc(-c2nc(NC3CCN(S(=O)(=O)C4CC4)CC3)ncc2F)cc(F)c1=O (stereo not drawn)
Activity (OVCAR-3 [1]): Active
Activity (OVCAR-3 [2]): 7.72%
Activity (OVCAR-3 [3]): Dose-dependent-effect
half-life [4]: 55.8 min
Activity (OVCAR-3 [5]): Dose-dependent-effect
Activity [6]: Non-toxic
MRT inf [7]: 49.2 min
Activity (OVCAR-3 [8]): Active
C0 [9]: 1.67 µg/mL
viability at 1 µM (OVCAR-3 [10]): 84.6%
IC50 [11]: 1.61 µM
Activity (OVCAR-3 [12]): Dose-dependent-effect
Activity [13]: Non-toxic
Activity [14]: Non-toxic
Activity (OVCAR-3 [15]): 2.09%
Activity [16]: Non-toxic
Activity (OVCAR-3 [17]): Active
Activity (OVCAR-3 [18]): 4.3%
Activity (OVCAR-3 [19]): Active
Activity (OVCAR-3 [20]): Active
Activity (OVCAR-3 [21]): 5.01%
Activity [22]: Non-toxic
Activity (OVCAR-3 [23]): Active
